Values of other authors as cited in patent US10231936B2, “Delayed release pharmaceutical formulations” (Euro-Celtique S.A., priority 2000, dated 2019).
Counter-ions that a name gives are not always drawn. Like-named read-outs stand apart in the source and are kept apart here.

Key:
[1] = conventional normal release dosage form
[2] = by mouth
[3] = spheroids in capsules

Structure (SMILES) | elimination half-life [1] [h] | bioavailability [2] | other results
Cc1ccc(-c2nc3ccc(C)cn3c2CC(=O)N(C)C)cc1 [Zolpidem tartrate] | ~2 | – | –
CN1CCN(C(=O)OC2c3nccnc3C(=O)N2c2ccc(Cl)cn2)CC1 (stereo not drawn) [Zopiclone] | ~2 | – | –
C[C@]12C=CC(=O)C=C1CC[C@@H]1[C@@H]2[C@@H](O)C[C@@]2(C)[C@H]1CC[C@]2(O)C(=O)COC(=O)c1cccc(S(=O)(=O)[O-])c1.[Na+] [PSMB, Prednisolone sodium metasulphobenzoate] | – | very low bioavailability | –
CCCC1O[C@@H]2C[C@H]3[C@@H]4CCC5=CC(=O)C=C[C@]5(C)[C@H]4[C@@H](O)C[C@]3(C)[C@]2(C(=O)CO)O1 (stereo partly drawn) [Budesonide] | – | – | total absorbed Budesonide absorbed in the ileum and ascending colon ([3]; fasting healthy subjects): 68%; total absorbed Budesonide absorbed in the ileum and ascending colon ([3]; fed healthy subjects): 69%
CCC(=O)O[C@]1(C(=O)SCF)[C@H](C)C[C@H]2[C@@H]3C[C@H](F)C4=CC(=O)C=C[C@]4(C)[C@@]3(F)[C@@H](O)C[C@@]21C [Fluticasone, Fluticasone Propionate] | – | low bioavailability | –
